From publication PMC2685736, “Conservation of a conformational switch in RadA recombinase from Methanococcus maripaludis” (Acta Crystallographica Section D: Biological Crystallography, 2009)

Key:
[1] = target: T1, MmRadA (Methanococcus maripaludis, UniProt P0CW58); assay: X-ray crystallography, […]-2.[…] A; assay type: binding; details: Mg2+, pH 7.9; 0.4 M NH4Cl (3ewa), 0.4 M KCl (3ew9) or 0.1 M NH4Cl (3etl); ATPase site at the monomer interface
T1 construct: gene radA; full open reading frame in pET28a (NcoI/XhoI), expressed in E. coli BL21 Rosetta2 (DE3); no tag mentioned; helical filament, nucleotide buried between adjacent monomers; P-loop Gly105-Thr112, His280, Asp302
T1 sequence (P0CW58 whole entry): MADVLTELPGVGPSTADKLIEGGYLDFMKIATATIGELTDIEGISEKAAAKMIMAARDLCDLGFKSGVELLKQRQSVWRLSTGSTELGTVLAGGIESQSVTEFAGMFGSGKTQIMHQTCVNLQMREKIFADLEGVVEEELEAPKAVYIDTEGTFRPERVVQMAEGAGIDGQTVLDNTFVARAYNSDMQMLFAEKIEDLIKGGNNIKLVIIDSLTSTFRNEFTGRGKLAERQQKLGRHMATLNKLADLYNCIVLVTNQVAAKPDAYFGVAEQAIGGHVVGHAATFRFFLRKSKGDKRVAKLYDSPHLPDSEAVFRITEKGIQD

[2] = target: T1, MmRadA; assay: Malachite Green phosphate release (ATPase); assay type: biochemical; details: 5 mM ATP, 10 mM MgCl2, pH 7.4, 100 mM KCl, poly-(dT)36 ssDNA; mere turnover

| Compound | X-ray crystallography, 2.0-2.4 A [1] | Malachite Green phosphate release (ATPase) [2] |
| --- | --- | --- |
| Nc1ncnc2c1ncn2[C@@H]1O[C@H](COP(=O)(O)OP(=O)(O)NP(=O)(O)O)[C@@H](O)[C@H]1O [AMPPNP] | The nonhydrolyzable ATP analogue AMPPNP is buried between the MmRadA monomers as expected. | – |
| Nc1ncnc2c1ncn2[C@@H]1O[C@H](COP(=O)(O)OP(=O)(O)OP(=O)(O)O)[C@@H](O)[C@H]1O [ATP] | – | the M. maripaludis protein also actively catalyzed ATP hydrolysis in the presence of potassium |
